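Cells were grown in 96-well plates and exposed to each compound for 48 hours at five concentrations; endpoints were interpolated linearly between bracketing concentrations, or set to the highest concentration if not reached. At the TGI there is no net growth.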
What was measured:
Assay in all cases: NCI anticancer screen, dose series, 48 h
[1] = tested on: 786-0 renal
[2] = tested on: SK-OV-3 ovarian
[3] = tested on: SF-539 CNS
[4] = tested on: EKVX NSCLC
[5] = tested on: NCI-H226 lung
[6] = tested on: IGROV1 ovarian
[7] = tested on: ACHN renal
[8] = tested on: UACC-62 melanoma
[9] = tested on: COLO 205 colon
[10] = tested on: NCI-H522 lung
[11] = tested on: LOX IMVI melanoma
[12] = tested on: DU-145 prostate
[13] = tested on: UO-31 renal
[14] = tested on: NCI/ADR-RES ovarian
[15] = tested on: SN12C renal
[16] = tested on: MOLT-4 leukemia
[17] = tested on: HOP-62 NSCLC
[18] = tested on: TK-10 renal
[19] = tested on: HCC-2998 colon
[20] = tested on: UACC-257 melanoma
[21] = tested on: OVCAR-8 ovarian
[22] = tested on: PC-3 prostate
[23] = tested on: SR leukemia
[24] = tested on: U251 CNS
[25] = tested on: M14 melanoma
[26] = tested on: CCRF-CEM leukemia
[27] = tested on: OVCAR-4 ovarian
[28] = tested on: MDA-MB-435
[29] = tested on: SK-MEL-5 melanoma
[30] = tested on: SNB-19 CNS
[31] = tested on: SW-620 colon
[32] = tested on: BT-549 breast
[33] = tested on: SK-MEL-28 melanoma
[34] = tested on: MDA-MB-231 breast
[35] = tested on: HCT-116 colon
[36] = tested on: MDA-N
[37] = tested on: T-47D breast
[38] = tested on: HCT-15 colon
[39] = tested on: HOP-92 NSCLC
[40] = tested on: SK-MEL-2 melanoma
[41] = tested on: OVCAR-5 ovarian
[42] = tested on: KM12 colon
[43] = tested on: A498 renal
[44] = tested on: A549 NSCLC
[45] = tested on: CAKI-1 renal
[46] = tested on: HL-60(TB) leukemia
[47] = tested on: RPMI-8226 leukemia
[48] = tested on: NCI-H23 lung
[49] = tested on: SF-295 CNS
[50] = tested on: HT29 colon
[51] = tested on: MCF7 breast
[52] = tested on: OVCAR-3 ovarian
[53] = tested on: SF-268 CNS
[54] = tested on: RXF 393 renal
[55] = tested on: NCI-H460 lung
[56] = tested on: SNB-75 CNS
[57] = tested on: HS 578T breast
[58] = tested on: K-562 leukemia
[59] = tested on: MALME-3M melanoma

`COC(=O)Nc1cc(OCCCOC(C)=O)c2[nH]c(C(=O)OC)cc2c1C[C@H](O)CO` showed a TGI [1] greater than 100 µM, a TGI [2] greater than 100 µM and a TGI [3] greater than 100 µM. For the same compound, the TGI [4] was greater than 100 µM, the TGI [5] was greater than 100 µM and the TGI [6] was greater than 100 µM. It also gave a TGI [7] greater than 100 µM, a TGI [8] greater than 100 µM and a TGI [9] greater than 100 µM. For the same compound, the TGI [10] was 26.9 µM, the TGI [11] was greater than 100 µM and the TGI [12] was greater than 100 µM. The TGI [13] was greater than 100 µM, the TGI [14] was greater than 100 µM and the TGI [15] was greater than 100 µM. The TGI [16] was greater than 100 µM, the TGI [17] was greater than 100 µM and the TGI [18] was greater than 100 µM. The TGI [19] was greater than 100 µM, the TGI [20] was greater than 100 µM and the TGI [21] was greater than 100 µM. For the same compound, the TGI [22] was greater than 100 µM, the TGI [23] was greater than 100 µM and the TGI [24] was greater than 100 µM. For the same compound, the TGI [25] was greater than 100 µM, the TGI [26] was greater than 100 µM and the TGI [27] was greater than 100 µM. For the same compound, the TGI [28] was greater than 100 µM, the TGI [29] was greater than 100 µM and the TGI [30] was greater than 100 µM. The TGI [31] was greater than 100 µM, the TGI [32] was greater than 100 µM and the TGI [33] was greater than 100 µM. The TGI [34] was greater than 100 µM, the TGI [35] was greater than 100 µM and the TGI [36] was greater than 100 µM. It also gave a TGI [37] greater than 100 µM, a TGI [38] greater than 100 µM and a TGI [39] greater than 100 µM. For the same compound, the TGI [40] was greater than 100 µM, the TGI [41] was greater than 100 µM and the TGI [42] was greater than 100 µM. It also gave a TGI [43] greater than 100 µM, a TGI [44] greater than 100 µM and a TGI [45] greater than 100 µM. The TGI [46] was greater than 100 µM, the TGI [47] was greater than 100 µM and the TGI [48] was greater than 100 µM. It also gave a TGI [49] greater than 100 µM, a TGI [50] greater than 100 µM and a TGI [51] greater than 100 µM. For the same compound, the TGI [52] was greater than 100 µM.
Compound `[O-][n+]1c2cccc(O)c2[n+]([O-])c2cccc(O)c21` has a TGI [1] greater than 100 µM, a TGI [53] greater than 100 µM and a TGI [2] greater than 100 µM. It also gave a TGI [3] greater than 100 µM, a TGI [4] of 76.2 µM and a TGI [54] greater than 100 µM. The TGI [6] was 69 µM, the TGI [7] was 51.8 µM and the TGI [55] was greater than 100 µM. For the same compound, the TGI [9] was greater than 100 µM, the TGI [10] was greater than 100 µM and the TGI [11] was greater than 100 µM. It also gave a TGI [12] greater than 100 µM, a TGI [13] greater than 100 µM and a TGI [56] greater than 100 µM. It also gave a TGI [14] greater than 100 µM, a TGI [16] greater than 100 µM and a TGI [17] greater than 100 µM. For the same compound, the TGI [18] was greater than 100 µM, the TGI [20] was greater than 100 µM and the TGI [21] was greater than 100 µM. It also gave a TGI [22] greater than 100 µM, a TGI [24] greater than 100 µM and a TGI [25] greater than 100 µM. The TGI [26] was 56 µM, the TGI [27] was greater than 100 µM and the TGI [28] was greater than 100 µM. It also gave a TGI [29] greater than 100 µM, a TGI [30] greater than 100 µM and a TGI [31] greater than 100 µM. For the same compound, the TGI [32] was greater than 100 µM, the TGI [35] was greater than 100 µM and the TGI [36] was greater than 100 µM. The TGI [37] was greater than 100 µM, the TGI [38] was greater than 100 µM and the TGI [39] was 97.5 µM. For the same compound, the TGI [41] was greater than 100 µM, the TGI [57] was greater than 100 µM and the TGI [42] was greater than 100 µM. It also gave a TGI [43] greater than 100 µM, a TGI [44] greater than 100 µM and a TGI [45] greater than 100 µM. For the same compound, the TGI [46] was greater than 100 µM, the TGI [47] was 83.3 µM and the TGI [48] was greater than 100 µM. The TGI [49] was greater than 100 µM, the TGI [50] was greater than 100 µM and the TGI [51] was greater than 100 µM. The TGI [58] was greater than 100 µM and the TGI [52] was greater than 100 µM.
`CC(C)=CC1C(C(=O)OCc2cc3c(cc2Cl)OCO3)C1(C)C` (stereo not given) showed a TGI [1] greater than 100 µM, a TGI [53] greater than 100 µM and a TGI [4] of 80 µM. For the same compound, the TGI [54] was greater than 100 µM, the TGI [5] was greater than 100 µM and the TGI [6] was 87.5 µM. For the same compound, the TGI [7] was greater than 100 µM, the TGI [55] was greater than 100 µM and the TGI [8] was greater than 100 µM. The TGI [10] was 44.2 µM, the TGI [11] was 33.5 µM and the TGI [12] was greater than 100 µM. The TGI [13] was greater than 100 µM, the TGI [56] was greater than 100 µM and the TGI [14] was greater than 100 µM. The TGI [15] was greater than 100 µM, the TGI [16] was 31.5 µM and the TGI [17] was greater than 100 µM. The TGI [18] was greater than 100 µM, the TGI [19] was 58 µM and the TGI [20] was 48.1 µM. For the same compound, the TGI [59] was 49 µM, the TGI [21] was greater than 100 µM and the TGI [22] was 36 µM. For the same compound, the TGI [23] was 33.4 µM, the TGI [24] was 35.1 µM and the TGI [25] was greater than 100 µM. The TGI [26] was greater than 100 µM, the TGI [27] was greater than 100 µM and the TGI [28] was greater than 100 µM. For the same compound, the TGI [29] was 34.2 µM, the TGI [30] was greater than 100 µM and the TGI [31] was greater than 100 µM. It also gave a TGI [32] greater than 100 µM, a TGI [33] greater than 100 µM and a TGI [34] of 86.6 µM. For the same compound, the TGI [35] was greater than 100 µM, the TGI [36] was 81.5 µM and the TGI [37] was greater than 100 µM. It also gave a TGI [38] greater than 100 µM, a TGI [39] greater than 100 µM and a TGI [40] of 23.1 µM. It also gave a TGI [41] greater than 100 µM, a TGI [57] greater than 100 µM and a TGI [42] greater than 100 µM. For the same compound, the TGI [43] was greater than 100 µM, the TGI [44] was greater than 100 µM and the TGI [45] was greater than 100 µM. It also gave a TGI [48] greater than 100 µM, a TGI [49] greater than 100 µM and a TGI [50] greater than 100 µM. The TGI [58] was greater than 100 µM and the TGI [52] was greater than 100 µM.
With `CCOC(=O)N1CCNCCN(C(=O)OCC)CCNCC1` the TGI [1] was greater than 100 µM, the TGI [53] was greater than 100 µM and the TGI [3] was greater than 100 µM. It also gave a TGI [4] greater than 100 µM, a TGI [54] greater than 100 µM and a TGI [5] greater than 100 µM. The TGI [6] was greater than 100 µM, the TGI [7] was greater than 100 µM and the TGI [55] was greater than 100 µM. For the same compound, the TGI [8] was greater than 100 µM, the TGI [9] was greater than 100 µM and the TGI [10] was greater than 100 µM. The TGI [11] was greater than 100 µM, the TGI [12] was greater than 100 µM and the TGI [13] was greater than 100 µM. It also gave a TGI [14] greater than 100 µM, a TGI [15] greater than 100 µM and a TGI [16] greater than 100 µM. For the same compound, the TGI [17] was greater than 100 µM, the TGI [18] was greater than 100 µM and the TGI [19] was greater than 100 µM. It also gave a TGI [20] greater than 100 µM, a TGI [21] greater than 100 µM and a TGI [22] greater than 100 µM. The TGI [23] was greater than 100 µM, the TGI [24] was greater than 100 µM and the TGI [25] was greater than 100 µM. It also gave a TGI [26] greater than 100 µM, a TGI [27] greater than 100 µM and a TGI [28] greater than 100 µM. For the same compound, the TGI [29] was greater than 100 µM, the TGI [30] was greater than 100 µM and the TGI [31] was greater than 100 µM. The TGI [32] was greater than 100 µM, the TGI [33] was greater than 100 µM and the TGI [34] was greater than 100 µM. The TGI [35] was greater than 100 µM, the TGI [36] was greater than 100 µM and the TGI [37] was greater than 100 µM. For the same compound, the TGI [38] was greater than 100 µM, the TGI [39] was greater than 100 µM and the TGI [40] was greater than 100 µM. It also gave a TGI [41] greater than 100 µM, a TGI [57] greater than 100 µM and a TGI [43] greater than 100 µM. For the same compound, the TGI [44] was greater than 100 µM, the TGI [45] was greater than 100 µM and the TGI [46] was greater than 100 µM. The TGI [47] was greater than 100 µM, the TGI [48] was greater than 100 µM and the TGI [49] was greater than 100 µM. The TGI [50] was greater than 100 µM, the TGI [51] was greater than 100 µM and the TGI [58] was greater than 100 µM. It also gave a TGI [52] greater than 100 µM.

— PubChem BioAssay (NCI)
